# Measured values reported in patent US8592419B2, “Ceramides and apoptosis-signaling ligand” (MUSC Foundation for Research Development, priority 2004, dated 2013).
# Tests used:
# [1] = system: DU145 cells; experiment: MTS cell viability assay in DU145 cells; format: cell-based, human; conditions: in vitro
# Protocol: (§1) MTS cytotoxicity assays for LCL204 treatments. Cell viability was determined using the CellTiter 96 AQueous One Solution Cell Proliferation Assay (Promega; Madison, Wis., USA). 1×10^4 cells per well were seeded in 96-well plates overnight. The next day media was removed and replaced with either 100 μl media with vehicle control or media containing LCL204 at desired concentrations. Assays were carried out according to manufacturer's instruction as previously described (60). For experiments using enzyme inhibitors and LCL204, media was removed and replaced with 50 μl media containing vehicle only or indicated inhibitor. Cells were pretreated 1 hour at 37° C. before adding 50 μl media containing vehicle, inhibitor only, LCL204 only (2× concentration), or a combination. The remainder of the assay was carried out as described above.
# [2] = system: five different PCa cell lines; experiment: MTS cell viability assay, LCL204 treatments; format: cell-based, human; conditions: 24 hours treatment
# Protocol: Cell lines. The human PCa cell lines DU145, LNCaP, DuPro, and PC-3 were purchased from ATCC (Manassas, Va., USA), and PPC-1 cells were from Dr. Yi Lu at the University of Tennessee (Memphis, Tenn.). All cells were cultured in RPMI 1640 (Mediatech Inc.; Herndon, Va., USA) supplemented with 10% heat-inactivated BGS (Hyclone; Logan, Utah, USA). Cells were maintained in 5% CO2 at 37° C. All experiments were performed in RPMI 1640 supplemented with 2% heat-inactivated BGS.
# as §1
# [3] = system: DU145 xenografts; experiment: DU145 prostate cancer xenografts in nude mice
# From the text: One of the problems with cancer gene therapy as it is currently practiced is the issue of delivery of gene therapy vectors to every tumor cell in order to effect death of the tumor. […] The inventors devised a model of molecular cell killing in a solid tumor in which only perhaps up to 30% of the cells are infected by the virus. Since the ceramide analogs of the invention are acid CDase inhibitors which sensitize the cells to this type of cell death, an in vivo experiment in which prostate cancer xenografts, in this case DU145 cells, were grown in nude mice and treated sequentially with the acid Cdase inhibitor LCL204 followed by the AdGFPFasL virus. […] The LCL204 was administered at 0, 72 and 144 hours and the virus (1×10^9 pfu) at 10 and 82 hours.
# [4] = target: T1, ASMase (Homo sapiens, UniProt P17405); experiment: Acid sphingomyelinase activity assay; format: cell-based; conditions: DU145 cells, 10 μM
# T1 construct: DU145 cells were lysed in 50 mM Tris (pH=7.4) using a probe sonicator; endogenous in cells; host or cells: DU145 (lysate of treated cells)
# T1 sequence (P17405 47-631): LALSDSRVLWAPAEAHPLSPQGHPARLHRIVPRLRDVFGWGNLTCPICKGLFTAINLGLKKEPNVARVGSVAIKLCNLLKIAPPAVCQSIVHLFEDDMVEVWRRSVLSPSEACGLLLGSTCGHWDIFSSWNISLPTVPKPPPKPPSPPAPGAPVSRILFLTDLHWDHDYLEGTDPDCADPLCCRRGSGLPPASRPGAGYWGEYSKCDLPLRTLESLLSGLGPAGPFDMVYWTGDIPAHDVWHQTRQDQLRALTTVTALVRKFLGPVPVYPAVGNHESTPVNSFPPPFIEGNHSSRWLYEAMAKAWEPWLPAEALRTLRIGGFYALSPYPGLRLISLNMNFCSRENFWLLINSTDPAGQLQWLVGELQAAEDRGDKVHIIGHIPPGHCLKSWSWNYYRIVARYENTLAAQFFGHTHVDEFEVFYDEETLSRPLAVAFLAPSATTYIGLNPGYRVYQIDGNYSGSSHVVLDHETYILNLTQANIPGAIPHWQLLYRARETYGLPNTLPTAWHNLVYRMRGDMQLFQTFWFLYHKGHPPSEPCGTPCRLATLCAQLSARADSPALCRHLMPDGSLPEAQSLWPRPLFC
# Protocol: Acid Sphingomyelinase Activity Assay. DU145 cells were lysed in 50 mM Tris (pH=7.4) using a probe sonicator. Cellular debris was removed after centrifugation at 3000×g for 10 minutes. Proteins (50 μg) were adjusted to a total volume of 100 μl and the reaction was started by adding 100 μl of the reaction mixture containing 1 mM EDTA, 250 mM sodium acetate (pH 5.0), 100 μM [choline-methyl-^14C] sphingomyelin and 0.1% Triton X. After incubation at 37° C. for one hour, the reaction was stopped by adding 1.5 ml of chloroform/methanol (2:1) and then 200 μl of water. Phases were separated by centrifugation at 2000×g for 5 minutes. Quantitation of the amount of released radioactive phosphocholine was determined by subjecting 400 μl of the upper phase to scintillation counting.
# [5] = system: p73; experiment: Immunoblot of p73; format: cell-based, human
# Protocol: Immunoblot analysis. Cells were seeded in 60mm plates as described above and treated accordingly. Cells were lifted by gently scraping the plates, washed once with ice cold PBS and then lysed in lysis buffer (PBS, 1% Triton X-100, 10% glycerol) containing protease inhibitors pepstatin A (0.5 μg/ml), leupeptin (0.5 μg/ml), aprotinin (5 μg/ml), and PMSF (100 μg/ml) for 10 minutes on ice. Insoluble material was removed by centrifugation at 14,000 rpm for 15 minutes at 4° C. The supernatants were then supplemented with SDS at a final concentration of 2% and stored at −80° C. Protein concentrations were determined using the DC Protein Assay (BioRad Laboratories; Hercules, CA, USA) according to the manufacturer's instructions. 50 μg of protein per sample (unless otherwise indicated) were separated on NuPAGE 4-12% Bis-Tris gels (Invitrogen; Carlsbad, CA, USA) and transferred to nitrocellulose membranes (BioRad). Following transfer, membranes were blocked for 1 hour at room temperature in Tris-buffered saline (TBS) containing 0.1% Tween-20 and 5% nonfat dry milk and incubated overnight at 4° C. with primary antibody at a dilution of 1:2,000(actin), 1:1,000(cytochrome c, COX IV, Bax, Bak, p53, p38, P-p38), 1:500(P-JNK, JNK), 1:250 (AC, p73), or 1:400(LAMP-1, cathepsin B). Overnight incubations were performed in 5% milk in TBS-Tween. Following overnight incubation, membranes were washed three times for 10 minutes each in TBS-Tween and incubated for 1 hour at room temperature with secondary antibody in 5% milk TBS-Tween at a dilution 1:5,000 (goat anti-mouse IgG) or 1:50,000 (goat anti-rabbit). Membranes were then washed three times more and incubated for 5 minutes at room temperature with Super Signal HRP substrate (Pierce Biotechnology Inc.; Rockford, IL, USA).
# [6] = system: cathepsin B; experiment: Cathepsin B translocation to cytosol (subcellular fractionation, Western blot, activity assay); format: cell-based, human; conditions: DU145 cells
# Protocol: Subcellular fractionation. For cytochrome c immunoblot, cells were seeded and treated as described above. Cells were harvested at 4, 12, or 24 hours after treatment as described previously (62) and proteins (15 μg) were separated by gel electrophoresis and immunoblotted for cytochrome c as above. The protocol for separating cytosolic and heavy membrane fractions is a modified version of that used by Desahger et al. (63). Briefly, cells were seeded and treated in 60 mm plates as described above. Cells were harvested at 0, 0.5, 1, and 2 hours after treatment, washed once in PBS, and gently resuspended in isotonic mitochondrial buffer (210 mM mannitol, 70 mM sucrose, 1 mM EDTA, 10 mM HEPES, pH 7.0) supplemented with protease inhibitors. Cells were then transferred to 1.5 mL microcentrifuge tubes and homogenized using 40 strokes with a polished (fine grain sandpaper) Teflon pestle. Fractions were separated using differential centrifugation as described in the reference. All fractions were stored at −80° C. Cytosolic and heavy membrane fractions (30 and 15 μg, respectively) were separated on NuPAGE gels and immunoblotted as described above. […] Enzyme activity per 50 μg lysate was measured using the fluorogenic cathepsin B substrate 111 (Calbiochem) according to the manufacturer's protocol.
structure (smiles),measurement,setting,value
"CCCCCCCCCCCCCCN[C@H](CO)[C@H](O)c1ccc([N+](=O)[O-])cc1.Cl [LCL204, (1R,2R) D-threo-2-N-Tetradecylamino-1-(4′-nitrophenyl)-1,3-propandiol hydrochloride]",potency as inducer of cell death compared with B13,[1],much more potent inducer of cell death than B13
same,cell death,[2],concentration-dependent cell death in the micromolar range
same,"tumor burden, combination of LCL204 and AdGFPFasL virus","[3]; LCL204 at 0, 72 and 144 hours followed by virus at 10 and 82 hours",effectively reduce the tumor burden
same,"tumor growth, single agent","[3]; LCL204 systemically at 0, 72 and 144 hours, virus 1×10^9 pfu at 10 and 82 hours",some modest effects
same,observable effect on the animal,[3]; up to 75 mg/kg,no observable effect on the animal
same,earliest decrease in ASMase activity,[4],30 min
same,p73β induction,"[5]; PC-3 cells, 10 μM",p73β induction was detected after only two hours
same,p73β induction,[5]; PPC-1/pcDNA3 cells,time-dependent p73β induction
same,time within which cytosolic cathepsin B activity increased,"[6]; 10 μM, enzyme activity assay",≤ 30 min
same,time within which active cathepsin B was detected in the cytosolic fraction,[6]; Western blot,≤ 30 min
